Patent US20090062401A1, “DECALINE-DERIVED COMPOUNDS AS […] ACTIVE AGENTS” (UNIVERSITAT DORTMUND, priority 2004, published 2009)
Where two headings read alike, the source gives them in different places.

What was measured:
Format in all cases: biochemical
VHR = VHR (Homo sapiens, UniProt P51452); experiment: VHR phosphatase inhibition, general phosphatase assay using para-nitrophenylphosphate; settings: read-out: IC50 Target VHR
Description: (§1) Assays protocols for the other enzymes mentioned herein (MtPTPA, PP1, VHR, PTP1B) are disclosed in Schweizer R A S, Atanasov, G A, Frey B M, and Odermatt A, Mol. Cell. Endocrinol. 2003, 212, 41-49 and Barratte, B., Meijer L., Galaktionov K. & Beach D, Anticancer Res. 1992, 12, 873-880. For determination of the phosphatase activity, a general phosphatase assay using para-nitrophenylphosphate was applied.

PTP1B = molecular target: T1, PTP1B (Homo sapiens, UniProt P18031); experiment: PTP1B phosphatase inhibition, general phosphatase assay using para-nitrophenylphosphate; settings: read-out: IC50 Target PTP1B
T1 sequence (P18031 1-435): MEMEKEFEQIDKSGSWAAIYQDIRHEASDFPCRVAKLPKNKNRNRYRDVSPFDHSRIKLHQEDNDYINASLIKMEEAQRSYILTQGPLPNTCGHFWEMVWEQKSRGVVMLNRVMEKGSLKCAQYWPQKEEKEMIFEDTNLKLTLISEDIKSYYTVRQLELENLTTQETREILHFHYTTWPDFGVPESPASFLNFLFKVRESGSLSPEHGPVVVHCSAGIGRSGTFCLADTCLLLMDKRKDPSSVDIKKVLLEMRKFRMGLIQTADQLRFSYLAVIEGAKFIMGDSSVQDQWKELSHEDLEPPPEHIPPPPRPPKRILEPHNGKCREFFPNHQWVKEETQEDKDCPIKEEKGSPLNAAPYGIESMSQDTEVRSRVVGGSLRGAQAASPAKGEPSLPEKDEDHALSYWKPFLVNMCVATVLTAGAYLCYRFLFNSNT
Description: as §1

Cdc25A = molecular target: T2, Cdc25A (Homo sapiens, UniProt P30304); experiment: Cdc25A phosphatase inhibition
T2 sequence (P30304 1-524): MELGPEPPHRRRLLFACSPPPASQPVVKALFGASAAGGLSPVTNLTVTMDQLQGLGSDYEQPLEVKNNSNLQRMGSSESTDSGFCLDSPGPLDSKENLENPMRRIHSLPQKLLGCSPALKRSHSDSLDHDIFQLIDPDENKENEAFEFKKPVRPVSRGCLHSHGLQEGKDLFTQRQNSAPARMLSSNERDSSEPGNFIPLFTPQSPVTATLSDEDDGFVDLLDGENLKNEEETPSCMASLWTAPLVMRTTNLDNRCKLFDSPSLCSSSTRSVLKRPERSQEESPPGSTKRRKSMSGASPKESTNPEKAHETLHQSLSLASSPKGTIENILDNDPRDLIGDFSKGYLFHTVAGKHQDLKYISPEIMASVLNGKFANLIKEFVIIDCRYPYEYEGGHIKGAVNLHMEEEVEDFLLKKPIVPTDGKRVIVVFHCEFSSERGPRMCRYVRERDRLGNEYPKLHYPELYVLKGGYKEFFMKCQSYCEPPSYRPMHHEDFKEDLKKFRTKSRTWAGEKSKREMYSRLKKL
Description: Assay protocols for Cdc25A, 11βHSD1, 11βHSD2, and AChE are described in detain in the publication of Koch M A, Wittenberg L O, Basu S, Jeyaraj D A, Gourzoulidou E, Reinecke K, Odermatt A, Waldmann H (Proc. Natl. Acad. Sci. U.S.A. 2004 Nov. 30; 101(48):16721-6) and in Koch M A et al., Proc. Natl. Acad. Sci. U.S.A. 2005 Nov. 29; 102 (48):17272-7.

Sequence of VHR (P51452 whole entry, species assumed): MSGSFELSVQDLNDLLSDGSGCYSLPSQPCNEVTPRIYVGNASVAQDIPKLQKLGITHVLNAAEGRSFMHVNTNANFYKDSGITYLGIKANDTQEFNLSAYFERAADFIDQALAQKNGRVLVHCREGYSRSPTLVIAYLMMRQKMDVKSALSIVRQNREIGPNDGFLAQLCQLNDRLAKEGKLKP

Q: For `CC1=C2CCC[C@H](O)[C@@]2(C)C/C(=C\c2ccoc2)C1=O` [Compound 8, (3E,4aS,5S)-3-[(Furan-3-yl)methylen]-4,4a,5,6,7,8-hexahydro-5-hydroxy-1,4a-dimethylnaphthalen-2(3H)-one], which IC50 (VHR) is on record?
A: < 10 µM

Q: What about the IC50 (PTP1B) of the same molecule?
A: 10 to 50 µM

Q: And the IC50 (Cdc25A; read-out: IC50 Target Cdc25A)?
A: 10 to 50 µM

Q: `COc1ccc(/C=C2\C[C@@]3(C)C(=C(C)C2=O)CCC[C@@H]3O)c(C)c1` [Compound 16, (3E,4aS,5S)-3-(4-Methoxy-2-methylbenzyliden)-4,4a,5,6,7,8-hexahydro-5-hydroxy-1,4a-dimethylnaphthalen-2(3H)-one] was tested. Which IC50 (VHR) did it give?
A: 10 to 50 µM

Q: What about the IC50 (PTP1B) of the same molecule?
A: 10 to 50 µM

Q: Which IC50 (VHR) does the source give for `CC1=C2CCC[C@H](O)[C@@]2(C)C/C(=C\c2cccs2)C1=O` [Compound 30, (3E,4aS,5S)-4,4a,5,6,7,8-Hexahydro-5-hydroxy-1,4a-dimethyl-3-[(thiophen-2-yl)methylen]naphthalen-2(3H)-one] here?
A: 10 to 50 µM

Q: And the IC50 (PTP1B)?
A: 10 to 50 µM

Q: `CC1=C2CCC[C@H](O)[C@@]2(C)C/C(=C\c2sccc2C)C1=O` [Compound 33] was tested. Which IC50 (VHR) did it give?
A: 10 to 50 µM

Q: What about the IC50 (PTP1B) of the same molecule?
A: 10 to 50 µM

Q: What does the source list for `CC1=C2CCC[C@H](O)[C@@]2(C)C/C(=C\c2ccc(C#CC(C)OC(C)(C)C)cc2)C1=O` (stereo partly drawn) [Compound 38, (3E,4aS,5S)-3-[4-(3-tert-Butoxybut-1-inyl)benzyliden]-4,4a,5,6,7,8-hexahydro-5-hydroxy-1,4a-dimethylnaphthalen-2(3H)-one]?
A: IC50 (VHR): 10 to 50 µM; IC50 (PTP1B): 10 to 50 µM; IC50 (Cdc25A; read-out: IC50 Target Cdc25A): < 10 µM

Q: With `C#CCCCCCC#Cc1ccc(/C=C2\C[C@@]3(C)C(=C(C)C2=O)CCC[C@@H]3O)cc1` [Compound 42, (3E,4aS,5S)-3-[4-(Nona-1,8-diinyl)benzyliden]-4,4a,5,6,7,8-hexahydro-5-hydroxy-1,4a-dimethyl-naphthalen-2(3H)-one] as the molecule, how does the IC50 (Cdc25A; read-out: IC50 Target Cdc25A) read?
A: < 10 µM

Q: Which results are given for `CCCCCCCCCCCCCCC#Cc1ccc(/C=C2\C[C@@]3(C)C(=C(C)C2=O)CCC[C@@H]3O)cc1` [Compound 43, (3E,4aS,5S)-3-[4-(Hexadec-1-inyl)benzyliden]-4,4a,5,6,7,8-hexahydro-5-hydroxy-1,4a-dimethyl-naphthalen-2(3H)-one]?
A: IC50 (VHR): 10 to 50 µM; IC50 (PTP1B): 10 to 50 µM

Q: How did the IC50 (Cdc25A; read-out: IC50 Target Cdc25A) turn out when `CC1=C2CCC[C@H](O)[C@@]2(C)C/C(=C\c2ccc(C#CC3(O)CCCCC3)cc2)C1=O` [Compound 48, (3E,4aS,5S)-3-{4-[2-(1-Hydroxycyclohexyl)ethinyl]benzyliden}-4,4a,5,6,7,8-hexahydro-5-hydroxy-1,4a-dimethylnaphthalen-2(3H)-one] was run?
A: 10 to 50 µM

Q: With `CC1=C2CCC[C@H](O)[C@@]2(C)C/C(=C\C[C@]2(O)C[C@@H](O)[C@@H](O)[C@H](O)C2)C1=O` [Compound 58, (3E,4aS,5S)-4,4a,5,6,7,8-Hexahydro-5-hydroxy-3-{2-[(1S,3R,4S,5R)-1,3,4,5-tetrahydroxycyclohexyl]-ethyliden}-1,4a-dimethylnaphthalen2(3H)-one] as the molecule, how does the IC50 (VHR) read?
A: 10 to 50 µM

Q: What about the IC50 (PTP1B) of the same molecule?
A: 10 to 50 µM

Q: How did the IC50 (Cdc25A; read-out: IC50 Target Cdc25A) turn out when `C=C(C)C#Cc1ccc(/C=C2\C[C@@]3(C)C(=C(C)C2=O)CCC[C@@H]3O)cc1` [Compound 71, (3E,4aS,5S)-3-[4-(3-Methylbut-3-en-1-inyl)benzyliden]-4,4a,5,6,7,8-hexahydro-5-hydroxy-1,4a-dimethylnaphthalen-2(3H)-on] was run?
A: 10 to 50 µM

Q: Which IC50 (Cdc25A; read-out: IC50 Target Cdc25A) does the source give for `CC1=C2CCC[C@H](O)[C@@]2(C)C/C(=C\c2ccc(C#CCCCc3ccccc3)cc2)C1=O` [Compound 72, (3E,4aS,5S)-3-[4-(5-Phenylpent-1-inyl)benzyliden]-4,4a,5,6,7,8-hexahydro-5-hydroxy-1,4a-dimethylnaphthalen-2(3H)-one] here?
A: 10 to 50 µM

Q: With `CC1C(=O)/C(=C/c2cccn2C)C[C@@]2(C)C1CCC[C@@H]2O` (stereo partly drawn) [Compound 86, (E,4aS,5S)-Octahydro-5-hydroxy-1,4a-dimethyl-3-[(1-methyl-1H-pyrrol-2-yl)methylen]naphthalen-2(1H)-one] as the molecule, how does the IC50 (Cdc25A; read-out: IC50 Target Cdc25A) read?
A: 10 to 50 µM

Q: `CCCCCCC#Cc1ccc(/C=C2\C[C@@]3(C)C(=C(C)C2=O)CCC[C@@H]3O)cc1` [Compound 91, (3E,4aS,5S)-3-[4-(Oct-1-inyl)benzyliden]-4,4a,5,6,7,8-hexahydro-5-hydroxy-1,4a-dimethylnaphthalen-2(3H)-one] was tested. Which IC50 (Cdc25A; read-out: IC50 Target Cdc25A) did it give?
A: < 10 µM

Q: How did the IC50 (VHR) turn out when `C[C@]12C/C(=C\c3ccc(C#C[Si](C)(C)C)cc3)C(=O)C=C1CCC[C@@H]2O` [Compound 137, (3E,4aS,5S)-3-{4-[2-(Trimethylsilyl)ethinyl]benzyliden}-4,4a,5,6,7,8-hexahydro-5-hydroxy-4a-methylnaphthalen-2(3H)-one] was run?
A: 10 to 50 µM

Q: And the IC50 (Cdc25A)?
A: < 10 µM

Q: Which IC50 (VHR) does the source give for `C[C@]12C/C(=C\c3ccc(C#CC4(O)CCCCC4)cc3)C(=O)C=C1CCC[C@@H]2O` [Compound 138, (3E,4aS,5S)-3-{4-[2-(1-Hydroxycyclohexyl)ethinyl]benzyliden}-4,4a,5,6,7,8-hexahydro-5-hydroxy-4a-methylnaphthalen-2(3H)-one] here?
A: 10 to 50 µM

Q: And the IC50 (Cdc25A; read-out: IC50 Target Cdc25A)?
A: < 10 µM

Q: Which IC50 (Cdc25A; read-out: IC50 Target Cdc25A) does the source give for `CCCCCCC#Cc1ccccc1/C=C1\CCC2C(C)C(O)CC[C@]2(C)C1NC1CCCCC1` (stereo partly drawn) [Compound 323, (E,4aS)-6-[2-(Oct-1-inyl)benzyliden]-5-(cyclohexylamino)-decahydro-1,4a-dimethylnaphthalen-2-ol] here?
A: 10 to 50 µM

Q: For `C=CC[C@@]12C(=CC(=O)/C(=C/c3ccccc3C#CCCCCCCCCCCCCCC)[C@@H]1C)CCC[C@@H]2O` [Compound 326, (3E,4R,4aS,5S)-3-[2-(Hexadec-1-inyl)benzyliden]-4a-allyl-4,4a,5,6,7,8-hexahydro-5-hydroxy-4-methylnaphthalen-2(3H)on], which IC50 (Cdc25A; read-out: IC50 Target Cdc25A) is on record?
A: 10 to 50 µM

Q: With `CCCCCCCCCCCCCCC#Cc1ccccc1/C=C1\C[C@@]2(C)C(=CC1=O)CCC[C@@H]2O` [Compound 332, (3E,4aS,5S)-3-[2-(Hexadec-1-inyl)benzyliden]-4,4a,5,6,7,8-hexahydro-5-hydroxy-4a-methylnaphthalen-2(3H)-one] as the molecule, how does the IC50 (Cdc25A; read-out: IC50 Target Cdc25A) read?
A: 10 to 50 µM

Q: With `COCC#Cc1ccccc1/C=C1\C[C@@]2(C)C(=CC1=O)CCC[C@@H]2O` [Compound 334, (3E,4aS,5S)-3-[2-(3-Methoxyprop-1-inyl)benzyliden]-4,4a,5,6,7,8-hexahydro-5-hydroxy-4a-methylnaphthalen-2(3H)-one] as the molecule, how does the IC50 (Cdc25A; read-out: IC50 Target Cdc25A) read?
A: 10 to 50 µM

Q: How did the IC50 (Cdc25A; read-out: IC50 Target Cdc25A) turn out when `COCC#Cc1cccc(/C=C2\C[C@@]3(C)C(CCC[C@@H]3O)C(C)C2NC2CCCCC2)c1` (stereo partly drawn) [Compound 346, (E,1S,8aS)-7-[3-(3-Methoxyprop-1-inyl)benzyliden]-6-(cyclohexylamino)-decahydro-5,8a-dimethylnaphthalen-1-ol] was run?
A: 10 to 50 µM

Q: For `C=CC[C@]12C(CCC[C@@H]1O)C(C)C(=O)/C(=C/c1cccc(C#CCOC)c1)[C@@H]2C` (stereo partly drawn) [Compound 349, (E,4R,4aR,5S)-3-[3-(3-Methoxyprop-1-inyl)benzyliden]-4a-allyl-octahydro-5-hydroxy-1,4-dimethylnaphthalen-2(1H)-one], which IC50 (Cdc25A; read-out: IC50 Target Cdc25A) is on record?
A: 10 to 50 µM

Q: `CC1=C2CCC[C@H](O)[C@@]2(C)CC(=Cc2ccc(C#Cc3ccncc3)cc2)C1=O` [Compound 395, (4aS,5S)-5-Hydroxy-1,4a-dimethyl-3-(4-pyridin-4-ylethynyl-benzylidene)-4,4a,5,6,7,8-hexahydro-3H-naphthalen-2-one] was tested. Which IC50 (VHR) did it give?
A: 10 to 50 µM

Q: And the IC50 (PTP1B)?
A: 10 to 50 µM

Q: For `CC1=C2CCCC(=O)[C@@]2(C)CC/C1=C1/C=CC(=O)O1` [Compound 401, (2E,4aS)-5-(1,4a-Dimethyl-5-oxo-4,4a,5,6,7,8-hexahydro-3H-naphthalen-2-ylidene)-5H-furan-2-one], which IC50 (VHR) is on record?
A: 10 to 50 µM

Q: What about the IC50 (Cdc25A; read-out: IC50 Target Cdc25A) of the same molecule?
A: 10 to 50 µM

Q: Which IC50 (PTP1B) does the source give for `CCCCC1(C)C(=O)CC[C@@]2(C)C1CCC[C@@H]2O` (stereo partly drawn) [Compound 414, (4aS,5S)-1-Butyl-5-hydroxy-1,4a-dimethyl-1-octahydro-naphthalen-2-one] here?
A: 10 to 50 µM

Q: And the IC50 (Cdc25A; read-out: IC50 Target Cdc25A)?
A: 10 to 50 µM

Q: With `CC1=C2CCCC3(OCCO3)C2(C)CC/C1=C1/C=CC(=O)O1` (stereo not shown) [Compound 415, (5E)-5-(5′,8a′-dimethyl-3′,4′,8′,8a′-tetrahydro-2′H-spiro[1,3-dioxolane-2,1′-naphthalen]-6′(7′H)-ylidene)furan-2(5H)-one] as the molecule, how does the IC50 (Cdc25A; read-out: IC50 Target Cdc25A) read?
A: 10 to 50 µM

Q: With `CC1=C2CC(C(C)C)CC(O)C2CCC1=O` (stereo not shown) [Compound 417, 5-Hydroxy-7-isopropyl-1-methyl-4,4a,5,6,7,8,-hexahydro-3H-naphthalen-2-one] as the molecule, how does the IC50 (PTP1B) read?
A: 10 to 50 µM
